Assay results as given in BindingDB's records for patent US20240116892 (Ajax Therapeutics, Inc., 2024).
pKd: −log10 of the molar value.

target: Tyrosine-protein kinase JAK2 [Y1007F,Y1008F] (Homo sapiens, UniProt O60674, Y1007F/Y1008F); assay: JAK2 Binding Assay
Experimental: JAK2 (JH1 domain-catalytic, Y1007F, Y1008F) kinase was expressed as N-terminal fusion to the DNA binding domain of NFkB in transiently transfected HEK293 cells and subsequently tagged with DNA for qPCR detection. Streptavidin-coated magnetic beads were treated with biotinylated small molecule ligands for 30 minutes at room temperature to generate affinity resins for kinase assays. The liganded beads were blocked with excess biotin and washed with blocking buffer (SeaBlock (Pierce), 1% BSA, 0.05% Tween 20, 1 mmol/L DTT) to remove unbound ligand and to reduce nonspecific phage binding. Binding reactions were assembled by combining kinases, liganded affinity beads, and test compounds in 1× binding buffer (1× PBS, 0.05% Tween 20, 0.1% BSA, 1 mmol/L DTT). Test compound was prepared as 111× stocks in 100% DMSO and directly diluted into the assay wells. All reactions were performed in polypropylene 384-well plates in a final volume of 0.02 mL. The assay plates were incubated at room temperature with shaking for 1 hour and the affinity beads were washed with wash buffer (1× PBS, 0.05% Tween 20). The beads were then re-suspended in elution buffer (1× PBS, 0.05% Tween 20, 0.5 μmol/L non-biotinylated affinity ligand) and incubated at room temperature with shaking for 30 minutes. The kinase concentration in the eluate was measured by qPCR.

Sequence of Tyrosine-protein kinase JAK2 [Y1007F,Y1008F] (O60674 whole entry Y1007F/Y1008F, the tested form may be a part): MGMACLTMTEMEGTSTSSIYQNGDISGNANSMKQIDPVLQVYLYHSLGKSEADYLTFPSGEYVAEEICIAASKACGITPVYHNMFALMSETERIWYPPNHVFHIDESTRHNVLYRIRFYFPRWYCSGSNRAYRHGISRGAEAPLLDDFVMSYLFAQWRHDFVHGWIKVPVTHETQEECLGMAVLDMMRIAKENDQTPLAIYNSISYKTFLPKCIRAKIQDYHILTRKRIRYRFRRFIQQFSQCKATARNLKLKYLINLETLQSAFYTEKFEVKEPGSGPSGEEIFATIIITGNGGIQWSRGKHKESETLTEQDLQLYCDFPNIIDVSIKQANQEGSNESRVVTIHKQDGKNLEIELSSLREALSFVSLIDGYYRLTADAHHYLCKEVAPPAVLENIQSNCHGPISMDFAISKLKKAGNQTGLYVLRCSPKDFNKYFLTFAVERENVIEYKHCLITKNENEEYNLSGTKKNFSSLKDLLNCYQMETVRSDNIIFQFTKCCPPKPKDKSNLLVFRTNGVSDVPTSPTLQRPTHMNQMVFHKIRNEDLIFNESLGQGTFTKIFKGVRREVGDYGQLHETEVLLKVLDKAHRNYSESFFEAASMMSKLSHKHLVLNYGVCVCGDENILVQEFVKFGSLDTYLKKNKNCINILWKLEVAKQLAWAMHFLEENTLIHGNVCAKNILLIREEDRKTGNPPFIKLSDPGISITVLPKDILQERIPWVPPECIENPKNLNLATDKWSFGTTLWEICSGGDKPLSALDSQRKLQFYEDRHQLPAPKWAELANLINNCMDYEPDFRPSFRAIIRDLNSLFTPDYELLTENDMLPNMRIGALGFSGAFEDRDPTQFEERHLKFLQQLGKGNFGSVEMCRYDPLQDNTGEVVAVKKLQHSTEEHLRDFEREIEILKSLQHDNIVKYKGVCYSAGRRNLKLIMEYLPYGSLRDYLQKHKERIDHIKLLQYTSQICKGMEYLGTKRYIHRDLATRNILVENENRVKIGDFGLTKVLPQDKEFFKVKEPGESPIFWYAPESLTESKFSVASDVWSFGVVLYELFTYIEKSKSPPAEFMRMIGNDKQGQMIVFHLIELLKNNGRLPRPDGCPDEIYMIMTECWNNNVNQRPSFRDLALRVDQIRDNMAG

Row | pKd | Structure (SMILES)
1 | > 8.00 | CN(C(=O)Nc1cc(C(F)(F)F)cn(C)c1=O)[C@@H]1CCN(c2cnc3[nH]ncc3c2)C[C@@H]1F [US20240116892, Compound I-62-b]
2 | > 8.00 | CN(C(=O)Nc1cc(C(F)(F)F)cn(C)c1=O)C12CC(c3cnc4[nH]ccc4c3)(C1)C2 [US20240116892, Compound I-121]
3 | > 8.00 | Cn1cc(C(F)(F)F)cc(NC(=O)N2CCO[C@@H]3CN(c4cnc(NC(=O)C5CC5)cn4)CC[C@H]32)c1=O [US20240116892, Compound I-148-b]
